In article PMC7127027 (Bioorganic & Medicinal Chemistry Letters, 2017):

System: Hela cells RCB 0007
Conditions: human

## O=C(/C=C/c1ccccc1)N[C@@H](c1ccccc1)[C@@H](OC(=O)c1ccccc1)C(=O)NC1CCCCC1 [Compound 4, (2R,3S)-Cyclohexyl 3-(N-cinnamoyl)amino-3-phenyl-2-benzoyloxypropanamide]
  cell death ratio: less than 10%
